This assay addresses coca-5HT3 (α7(L141G,G175K,Y210F,Y217F)–5HT3) (Homo sapiens, UniProt P36544, G175K/L141G/Y210F/Y217F). In words: Membrane potential assay, coca-5HT3 in HEK293. As to conditions: for Response / Max normalized Response: coca-5HT3; for activation of coca-5HT3: membrane potential assay dose response; for Max normalized Response: ED Fig 3b.

The structures appear in SMILES notation.

Chain of coca-5HT3 (α7(L141G,G175K,Y210F,Y217F)–5HT3) (P36544 23-224 L141G/G175K/Y210F/Y217F): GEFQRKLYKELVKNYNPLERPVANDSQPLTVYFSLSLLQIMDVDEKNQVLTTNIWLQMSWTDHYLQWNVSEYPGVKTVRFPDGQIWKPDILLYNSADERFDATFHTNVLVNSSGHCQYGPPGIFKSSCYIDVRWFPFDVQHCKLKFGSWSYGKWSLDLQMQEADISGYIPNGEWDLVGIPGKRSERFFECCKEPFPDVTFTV
Chain of coca-5HT3 (α7(L141G,G175K,Y210F,Y217F)–5HT3) (P23979 242-489, further chain): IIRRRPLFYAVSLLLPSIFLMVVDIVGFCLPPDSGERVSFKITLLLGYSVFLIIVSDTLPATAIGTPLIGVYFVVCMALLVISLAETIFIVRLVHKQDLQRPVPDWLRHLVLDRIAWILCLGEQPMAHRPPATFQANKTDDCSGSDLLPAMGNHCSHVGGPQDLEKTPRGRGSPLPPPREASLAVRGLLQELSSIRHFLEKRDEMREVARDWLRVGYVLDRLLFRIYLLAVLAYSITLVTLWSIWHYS

`CN1[C@H]2CC[C@@H]1[C@@H](C(=O)O)[C@@H](OC(=O)c1ccccc1)C2` [benzoyl ecgonine]: the “activation of coca-5HT3” value is listed as “not activated”. This compound came in with a Response (conc 0.0137174 uM, ED Fig. 2b) of 0.07. The Response (conc 0.123457 uM, ED Fig. 2b) amounted to 0.088. Moreover, the Response (conc 0.37037 uM, ED Fig. 2b) is given as 0.072. The Response (conc 1.11111 uM, ED Fig. 2b) is 0.062. For the setting “conc 3.33333 uM, ED Fig. 2b”, the Response stood at 0.097. For the setting “conc 10 uM, ED Fig. 2b”, this compound yielded a Response of 0.074. The compound further had a Response (conc 30 uM, ED Fig. 2b) of 0.088.

Consider `CN1CC[C@]23c4c5ccc(O)c4O[C@H]2[C@@H](O)C=C[C@H]3[C@H]1C5` [morphine], for which the “activation of coca-5HT3” value is on record as “did not activate”. Moreover, the Response (conc 0.0137 uM, ED Fig. 2c) came to 0.063. Further, the Response (conc 0.123 uM, ED Fig. 2c) was 0.114. Besides, where the note is “conc 0.37 uM, ED Fig. 2c”, the Response is 0.04. The compound further returned a Response (conc 10 uM, ED Fig. 2c) of 0.069. For the setting “conc 30 uM, ED Fig. 2c”, this compound yielded a Response of 0.121.

Turning to `NCCc1c[nH]c2ccc(O)cc12` [Serotonin], the Response reads like this: (conc 1.37174 uM, ED Fig 3a) 0.295; (conc 12.3457 uM, ED Fig 3a) 0.101; (conc 37.037 uM, ED Fig 3a) 0.082; (conc 111.111 uM, ED Fig 3a) 0.115; (conc 333.333 uM, ED Fig 3a) 0.156; (conc 1000 uM, ED Fig 3a) 0.112.

For the compound `CN1[C@@H]2CC[C@H]1C[C@@H](OC(=O)[C@H](CO)c1ccccc1)C2` [Hyoscyamine], the “Max normalized Response” value was determined as 0.1005 (conc 0.137 uM); 0.08466 (conc 3.7 uM); 0.09524 (conc 11.1 uM); 0.1217 (conc 33.3 uM); 0.01058 (conc 100 uM).

As for `CC(C)[N+]1(C)[C@@H]2CC[C@H]1C[C@@H](OC(=O)C(CO)c1ccccc1)C2` (some centres unmarked) [Ipatropium], the “Max normalized Response” value runs as follows: (conc 0.137 uM) 0.03351; (conc 3.7 uM) 0.3358; (conc 11.1 uM) 0.05921; (conc 33.3 uM) 0.03979; (conc 100 uM) 0.03984.

For `CCCCC/C=C\C/C=C\C/C=C\C/C=C\CCCC(=O)NCCO` [Anandamide], the Response is on record as 0.053 (conc 0.457247 uM, ED Fig 3a); 0.085 (conc 1.37174 uM, ED Fig 3a); 0.046 (conc 12.3457 uM, ED Fig 3a); 0.011 (conc 37.037 uM, ED Fig 3a); 0.073 (conc 111.111 uM, ED Fig 3a); 0.021 (conc 333.333 uM, ED Fig 3a). The Response (conc 1000 uM, ED Fig 3a) turned out to be 0.149.

As for `N[C@@H](CCC(=O)O)C(=O)O` [Glutmate], the Response stood at 0.109 (conc 0.457247 uM, ED Fig 3a); 0.069 (conc 1.37174 uM, ED Fig 3a); 0 (conc 12.3457 uM, ED Fig 3a); 0.041 (conc 37.037 uM, ED Fig 3a); 0.031 (conc 111.111 uM, ED Fig 3a); 0.048 (conc 333.333 uM, ED Fig 3a). This compound also registered a Response (conc 1000 uM, ED Fig 3a) of 0.028.

The record behind these values is PMC12527922, “Cocaine chemogenetics blunts drug-seeking by synthetic physiology” (Nature, 2025).
